# Test results: BindingDB's records for PubMed 34146913 (National Institute of Pharmaceutical Education and Research …, 2021)
# How the values were obtained:
# [1] = Inhibition of DC-SIGN extracellular domain (unknown origin) expressed in Escherichia coli DE3(BL21) incubated for 1 hrs in presence of Man-Fl-BSA by high-throughput fluorescence-based assay
# [2] = Inhibition of DC-SIGN extracellular domain (unknown origin) by SPR analysis
IC50 [1],Kd [2],SMILES
1.6 µM,,CCC(=O)Nc1nc(C)c(-c2csc(Nc3ccc(N(C)C)cc3)n2)s1
7.3 µM,,O=C1Nc2cc(C(=O)N3CCN(c4ccccc4)CC3)ccc2NC1CSCc1c(F)cccc1Cl (centres undefined)
6.1 µM,,Cc1ccc(N(C)S(=O)(=O)c2ccc3[nH]cc(C(=O)N4CCN(c5ccccc5)CC4)c(=O)c3c2)cc1C
32 µM,,COC(=O)c1ccc(-c2ccc(/C=C3\C(=O)N(c4ccc(S(N)(=O)=O)cc4)N=C3C(F)(F)F)o2)cc1
10 µM,,CN1CCN(c2ccc(/C=C3\Sc4ccccc4C3=O)cc2[N+](=O)[O-])CC1
4.4 µM,,COc1ccccc1N1CCN(C(=O)c2ccc3c(c2)NC(=O)C(CCCc2ccccc2C)N3)CC1 (centres undefined)
2.6 µM,,NOC(=O)c1ccc(CCCC2Nc3ccc(C(=O)N4CCN(c5ncccn5)CC4)cc3NC2=O)cc1 (centres undefined)
,400 µM,N=c1c(C(=O)NCCc2cn3c(n2)SCC3)cnc2sccn12
,180 µM,O=C(NCCc1c[nH]c2ccccc12)c1c(O)nc2sccn2c1=O
